Measured values published in patent publication US20250320213A1, “Nitrogen-Containing Heterocyclic Compounds” (Pfizer Inc., priority 2024, published 2025).

Columns and labels:
[1] = system: CCL17 secretion in peripheral human whole blood; test: Human Whole Blood (HWB) CCL17 TR-FRET Assay (IL-13 stimulated CCL17 secretion); format: cell-based; conditions: Homo sapiens, 48 h, human whole blood, 10 ng/mL IL13, 48 hours
In short: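 Measured here: CCL17 in serum by TR-FRET (665/615 nm) after overnight (16 h) room-temperature detection. The blood, heparinized and compound-treated for 2 h, received IL-13 at 10 ng/mL final and was cultured 48 h at 37 °C.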

STAT6 = biological target: T1, STAT6 (Homo sapiens, UniProt P42226); test: STAT6 Reporter Luciferase Assay (IL-13 stimulated HaCaT keratinocyte NanoLuc reporter cells); format: cell-based; conditions: IL-13 stimulated HaCaT STAT6 NanoLuc reporter cells; read-out: Reporter EC50
T1 construct: stably transfected HaCaT keratinocyte cell line, which expresses NanoLuc luciferase reporter gene under the transcriptional control of the STAT6 responsive promoter; endogenous in cells; host or cells: HaCaT keratinocyte reporter cell line (stably transfected with a NanoLuc reporter)
T1 sequence (P42226 1-847): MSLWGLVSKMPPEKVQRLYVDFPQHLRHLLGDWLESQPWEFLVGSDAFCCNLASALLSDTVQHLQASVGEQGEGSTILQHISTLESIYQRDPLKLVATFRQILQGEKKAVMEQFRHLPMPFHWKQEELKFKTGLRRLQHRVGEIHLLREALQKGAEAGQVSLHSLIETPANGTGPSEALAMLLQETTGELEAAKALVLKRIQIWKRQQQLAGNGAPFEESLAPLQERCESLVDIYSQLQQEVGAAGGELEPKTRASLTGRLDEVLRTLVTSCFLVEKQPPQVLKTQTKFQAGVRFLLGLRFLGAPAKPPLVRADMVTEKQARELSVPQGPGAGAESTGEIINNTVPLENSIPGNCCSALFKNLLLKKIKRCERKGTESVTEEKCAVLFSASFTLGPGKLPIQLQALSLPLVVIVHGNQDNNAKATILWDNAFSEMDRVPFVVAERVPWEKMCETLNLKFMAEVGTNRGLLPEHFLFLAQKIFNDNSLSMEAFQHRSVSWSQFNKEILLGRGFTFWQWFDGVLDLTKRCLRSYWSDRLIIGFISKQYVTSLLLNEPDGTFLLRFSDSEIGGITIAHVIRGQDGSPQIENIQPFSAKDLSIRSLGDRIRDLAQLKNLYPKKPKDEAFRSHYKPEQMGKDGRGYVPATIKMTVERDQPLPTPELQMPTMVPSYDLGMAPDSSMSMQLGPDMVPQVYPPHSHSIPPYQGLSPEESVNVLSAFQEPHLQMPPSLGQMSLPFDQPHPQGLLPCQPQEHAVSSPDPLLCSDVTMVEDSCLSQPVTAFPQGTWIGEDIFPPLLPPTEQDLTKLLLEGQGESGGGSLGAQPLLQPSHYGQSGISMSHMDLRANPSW
In short: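 HaCaT IL-13Ra2-promoter NanoLuc reporter; cpd 2 h 37 °C in DMEM/2% HI FBS; IL-13 0.12 nM final, 4 h; Nano-Glo luminescence.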

With `CC(C)n1nc(C(=O)NCc2ccc(NC(=O)N3CC(F)(F)C3)cc2)c2c1[C@@H](C)CN(c1ccc(C(=O)N(C)C)cn1)C2` [Example 599, (S)-N-(4-(3,3-difluoroazetidine-1-carboxamido)benzyl)-5-(5-(dimethylcarbamoyl)pyridin-2-yl)-1-isopropyl-7-methyl-4,5,6,7-tetrahydro-1H-pyrazolo[4,3-c]pyridine-3-carboxamide] the IC50 [1] was 12 nM and the EC50 (STAT6) was 1 nM.
`CC(C)n1nc(C(=O)NCc2ccc(C(=O)NC3CCN(C)CC3)cc2)c2c1[C@@H](C)CN(c1ccc(C(=O)N(C)C)cn1)C2` [Example 601, (S)-5-(5-(dimethylcarbamoyl)pyridin-2-yl)-1-isopropyl-7-methyl-N-(4-((1-methylpiperidin-4-yl)carbamoyl)benzyl)-4,5,6,7-tetrahydro-1H-pyrazolo[4,3-c]pyridine-3-carboxamide] was tested, and the IC50 [1] was 2100 nM and the EC50 (STAT6) was 312 nM.
For `CC(C)n1nc(C(=O)NCc2ccc(NC(=O)N3CCC4(CC3)CCN4C)c(F)c2)c2c1[C@@H](C)CN(c1ccc(C(=O)N(C)C)cn1)C2` [Example 602, (S)-5-(5-(dimethylcarbamoyl)pyridin-2-yl)-N-(3-fluoro-4-(1-methyl-1,7-diazaspiro[3.5]nonane-7-carboxamido)benzyl)-1-isopropyl-7-methyl-4,5,6,7-tetrahydro-1H-pyrazolo[4,3-c]pyridine-3-carboxamide], the IC50 [1] was 14 nM and the EC50 (STAT6) was 1 nM.
`CC(C)n1nc(C(=O)NCc2ccc(NC(=O)N3CC4(CCN(C)C4)C3)c(F)c2)c2c1[C@@H](C)CN(c1ccc(C(=O)N(C)C)cn1)C2` [Example 603, (S)-5-(5-(dimethylcarbamoyl)pyridin-2-yl)-N-(3-fluoro-4-(6-methyl-2,6-diazaspiro[3.4]octane-2-carboxamido)benzyl)-1-isopropyl-7-methyl-4,5,6,7-tetrahydro-1H-pyrazolo[4,3-c]pyridine-3-carboxamide] was tested, and the IC50 [1] was 31 nM and the EC50 (STAT6) was 3 nM.
`CC(C)n1nc(C(=O)NCc2ccc(NC(=O)N3CC4(CN(C)C4)C3)c(F)c2)c2c1[C@@H](C)CN(c1ccc(C(=O)N(C)C)cn1)C2` [Example 604, (S)-5-(5-(dimethylcarbamoyl)pyridin-2-yl)-N-(3-fluoro-4-(6-methyl-2,6-diazaspiro[3.3]heptane-2-carboxamido)benzyl)-1-isopropyl-7-methyl-4,5,6,7-tetrahydro-1H-pyrazolo[4,3-c]pyridine-3-carboxamide] showed an IC50 [1] of 29 nM and an EC50 (STAT6) of 4 nM.
`CNC(=O)c1ccc(CNC(=O)c2nn(C(C)C)c3c2CN(c2ccc(C(=O)N(C)C)cc2)C[C@@H]3C)cc1` [Example 605, (S)-5-(4-(dimethylcarbamoyl)phenyl)-1-isopropyl-7-methyl-N-(4-(methylcarbamoyl)benzyl)-4,5,6,7-tetrahydro-1H-pyrazolo[4,3-c]pyridine-3-carboxamide] gave an IC50 [1] of 37 nM and an EC50 (STAT6) of 4 nM.
With `CC(C)n1nc(C(=O)NCc2ccc(NC(=O)N3CCN(C)CC3)c(F)c2)c2c1[C@@H](C)CN(c1ccc(C(=O)N(C)C)cn1)C2` [Example 606, (S)-5-(5-(dimethylcarbamoyl)pyridin-2-yl)-N-(3-fluoro-4-(4-methylpiperazine-1-carboxamido)benzyl)-1-isopropyl-7-methyl-4,5,6,7-tetrahydro-1H-pyrazolo[4,3-c]pyridine-3-carboxamide] the IC50 [1] was 9 nM and the EC50 (STAT6) was 1 nM.
With `CC(C)n1nc(C(=O)NCc2ccc(NC(=O)N3CCCN(C)CC3)c(F)c2)c2c1[C@@H](C)CN(c1ccc(C(=O)N(C)C)cn1)C2` [Example 607, (S)-5-(5-(dimethylcarbamoyl)pyridin-2-yl)-N-(3-fluoro-4-(4-methyl-1,4-diazepane-1-carboxamido)benzyl)-1-isopropyl-7-methyl-4,5,6,7-tetrahydro-1H-pyrazolo[4,3-c]pyridine-3-carboxamide] the IC50 [1] was 21 nM and the EC50 (STAT6) was 2 nM.
Work on `CC(C)n1nc(C(=O)NCc2ccc(NC(=O)N3CC4(CCN(C)CC4)C3)c(F)c2)c2c1[C@@H](C)CN(c1ccc(C(=O)N(C)C)cn1)C2` [Example 608, (S)-5-(5-(dimethylcarbamoyl)pyridin-2-yl)-N-(3-fluoro-4-(7-methyl-2,7-diazaspiro[3.5]nonane-2-carboxamido)benzyl)-1-isopropyl-7-methyl-4,5,6,7-tetrahydro-1H-pyrazolo[4,3-c]pyridine-3-carboxamide] yielded an IC50 [1] of 16 nM and an EC50 (STAT6) of 1 nM.
`CC(C)n1nc(C(=O)NCc2ccc(NC(=O)N3CCN(C)CC3)cc2)c2c1[C@@H](C)CN(c1ccc(-n3ccccc3=O)cn1)C2` [Example 609, (S)-1-isopropyl-7-methyl-N-(4-(4-methylpiperazine-1-carboxamido)benzyl)-5-(2-oxo-2H-[1,3′-bipyridin]-6′-yl)-4,5,6,7-tetrahydro-1H-pyrazolo[4,3-c]pyridine-3-carboxamide] was tested, and the IC50 [1] was 7 nM and the EC50 (STAT6) was 1 nM.
In the case of `CC(C)n1nc(C(=O)NCc2ccc(NC(=O)N3CCN(C)CC3)c(F)c2)c2c1[C@@H](C)CN(c1ccc(-n3ccccc3=O)cn1)C2` [Example 610, (S)-N-(3-fluoro-4-(4-methylpiperazine-1-carboxamido)benzyl)-1-isopropyl-7-methyl-5-(2-oxo-2H-[1,3′-bipyridin]-6′-yl)-4,5,6,7-tetrahydro-1H-pyrazolo[4,3-c]pyridine-3-carboxamide], the IC50 [1] is reported as 17 nM and the EC50 (STAT6) is reported as 2 nM.
With `CC(C)n1nc(C(=O)NCc2ccc(NC(=O)N3CCN(C)CC3)cc2)c2c1[C@@H](C)CN(c1ccc(C(=O)N3Cc4cccnc4C3)cn1)C2` [Example 611, (S)-5-(5-(6,7-dihydro-5H-pyrrolo[3,4-b]pyridine-6-carbonyl)pyridin-2-yl)-1-isopropyl-7-methyl-N-(4-(4-methylpiperazine-1-carboxamido)benzyl)-4,5,6,7-tetrahydro-1H-pyrazolo[4,3-c]pyridine-3-carboxamide] the IC50 [1] was 5 nM and the EC50 (STAT6) was 0.2 nM.
`CC(C)n1nc(C(=O)NCc2ccc(NC(=O)N3CCN(C)CC3)c(F)c2)c2c1[C@@H](C)CN(c1ccc(C(=O)N3Cc4cccnc4C3)cn1)C2` [Example 612, (S)-5-(5-(6,7-dihydro-5H-pyrrolo[3,4-b]pyridine-6-carbonyl)pyridin-2-yl)-N-(3-fluoro-4-(4-methylpiperazine-1-carboxamido)benzyl)-1-isopropyl-7-methyl-4,5,6,7-tetrahydro-1H-pyrazolo[4,3-c]pyridine-3-carboxamide] showed an IC50 [1] of 10 nM and an EC50 (STAT6) of 0.5 nM.
In the case of `CC(C)n1nc(C(=O)NCc2ccc(NC(=O)N3CCN(C)CC3)cc2)c2c1[C@@H](C)CN(c1ccc(C(=O)N3Cc4cccnc4C3)cc1)C2` [Example 614, (S)-5-(4-(6,7-dihydro-5H-pyrrolo[3,4-b]pyridine-6-carbonyl)phenyl)-1-isopropyl-7-methyl-N-(4-(4-methylpiperazine-1-carboxamido)benzyl)-4,5,6,7-tetrahydro-1H-pyrazolo[4,3-c]pyridine-3-carboxamide], the IC50 [1] is reported as 7 nM and the EC50 (STAT6) is reported as 0.4 nM.
With `CC(C)n1nc(C(=O)NCc2ccc(NC(=O)N3CCCN(C)CC3)cc2)c2c1[C@@H](C)CN(c1ccc(C(=O)N(C)C)cn1)C2` [Example 615, (S)-5-(5-(dimethylcarbamoyl)pyridin-2-yl)-1-isopropyl-7-methyl-N-(4-(4-methyl-1,4-diazepane-1-carboxamido)benzyl)-4,5,6,7-tetrahydro-1H-pyrazolo[4,3-c]pyridine-3-carboxamide] the IC50 [1] was 13 nM and the EC50 (STAT6) was 2 nM.
`CC(C)n1nc(C(=O)NCc2ccc(NC(=O)N3CCC(N(C)C)CC3)cc2)c2c1[C@@H](C)CN(c1ccc(C(=O)N(C)C)cn1)C2` [Example 616, (S)-N-(4-(4-(dimethylamino)piperidine-1-carboxamido)benzyl)-5-(5-(dimethylcarbamoyl)pyridin-2-yl)-1-isopropyl-7-methyl-4,5,6,7-tetrahydro-1H-pyrazolo[4,3-c]pyridine-3-carboxamide] showed an IC50 [1] of 6 nM and an EC50 (STAT6) of 1 nM.
Compound `CC(C)n1nc(C(=O)NCc2ccc(C(=O)NCC3CCN(C)CC3)cc2)c2c1[C@@H](C)CN(c1ccc(C(=O)N(C)C)cc1)C2` [Example 617, (S)-5-(4-(dimethylcarbamoyl)phenyl)-1-isopropyl-7-methyl-N-(4-(((1-methylpiperidin-4-yl)methyl)carbamoyl)benzyl)-4,5,6,7-tetrahydro-1H-pyrazolo[4,3-c]pyridine-3-carboxamide] has an IC50 [1] of 502 nM and an EC50 (STAT6) of 178 nM.
